Reference: US20230226100A1, “CYCLODEXTRIN BASED ANTI-MICROBIAL THERAPY” (University of Southern California, priority 2020, published 2023)

Legend:
Assay type in all cases: cell-based
A549 cells = test: Safety of barriers: A549 cell morphology; details: 5% concentrations; incubated 1 h; 10× magnification
Description: During protection of mucocutaneous linings, barriers will be exposed repeatedly due to frequent dosing. A critical criterion for selecting the right cyclodextrin for a nanoformulation barrier usable in this application is the safety of the cyclodextrin type. A549 cells were seeded at 4×10^4 cells per well and grown to confluence. Cyclodextrin-based formation candidates were tested at 5% concentrations and incubated for 1 h prior to the addition. The barrier was then replaced with media for evaluation. Pictures were taken for at least five field views at 10× magnification.

A549 = test: Alamar Blue chemical dye penetration through barrier, A549
Description: (§1) Studies test efficacy barrier to prevent chemical dye penetration. We used a resurazine dye that can penetrate across cellular membranes where it is […] to form a purple color and is quantifiable using fluorescence or visible light. Chemical exposure used Alamar Blue which was incubated for 4 hours. The ability of the barrier formulation to prevent chemical penetration was measured at 570 nm and confirmed using fluorescence intensity (560/590 nm) readings. A concentration dependent response to HPBCD was observed over four hours of incubation. The chemical dye penetration was reduced with increasing percent beta cyclodextrin across all timepoints (FIG. 5).
The ability to block chemical exposure was also conducted in the other cyclodextrins namely hydroxypropyl gamma cyclodextrin (HPGCD), sulfonylbutyl ethyl beta cyclodextrins (SBEBCD), and randomly methylated methyl beta cyclodextrins (CRYSMEB) and incubating over 4 hours. The ability of the barrier formulations to prevent chemical penetration was measured at an absorbance of 570 nm and confirmed using fluorescence intensity (560/590 nm) readings. […] The addition of HEC improved the ability to prevent chemical penetration (Table 2). Although the data is unexpected, it allows for further probe into the effect of these cyclodextrin derivatives on viral particles which may be bigger and more hydrophobic.
(§2) To determine the ability of the candidate nanoscale barrier to prevent chemical penetration, epithelial cells (e.g., HEK293T, A549, Vero-E6 ACE2) were seeded at 1×10^4 cells per well and incubated in DMEM till confluence. Cyclodextrin-based formation candidates were tested at various concentrations from 0 to 20% was added at varying concentrations (% w/v) and incubated for 0.5 h prior to the addition of the Alamar Blue. Alamar Blue is able to penetrate the cell, where viable cells are able to reduce the resazurin-based solution to quantitatively measure level of penetration.

HEK293T = test: Alamar Blue chemical dye penetration through barrier, HEK293T
Description: as §1, §2

Vero-E6 ACE2 = test: Alamar Blue chemical dye penetration through barrier, Vero-E6 ACE2
Description: as §1, §2

[1] = system: pLV[Exp]-Puro-CMV>EGFP lentivirus; test: EGFP lentivirus infection of HEK293T cells in presence of barrier
Description: To simulate viral infection, we used lentivirus that has green fluorescent protein (GFP) incorporated into its gene. Lentivirus are designed to be highly efficient to transfect epithelial cells such as HEK293T. The effect of HPBCD barrier to present viral infection was evaluated using a concentration escalation study, where HPBCD ranged from 0 to 25% (w/v). In this study, we used a pLV[Exp]-Puro-CMV>EGFP lentivirus to infect HEK293T.
Human muco-ciliary deposition and clearance of exogenous substances occurs in 30 minutes as determined through real time methodology (Thrall et al., Inhalation Toxicology, 2003. 15(6): p. 523-538). Subsequently the EGFP lentivirus was incubated in the presence and absence of the HPBCD barrier for reduced time periods (0.5 h and 2 h) to reflect applicability of a HPBCD nasal spray. After the incubation period, barriers were removed, and cells were washed with 1×PBS before replacement with complete cell culture medium. 24 hours post-incubation at 5% CO2 and 37 degrees C., fluorescence imaging was conducted using the Biotek Cytation 5 imaging device in which 4×GFP images were taken. […] After 30 minutes of incubation with the virus, there is 50% reduction of viral infectivity as measured by fluorescence signal using 5% HPBCD.
To test the ability to prevent viral Epithelial cells (e.g., HEK293T, A549, Vero-E6 ACE2) were used a models chemical and viral infections. Cells were seeded onto 96-well plates at a density of 10^4 cells per well and incubated in DMEM (phenol red free) with 10% FBS and 1% non-essential ammino acids (NEAA). Cells were allowed to attach and grown to confluence to allow for cell polarization prior to experimentation.
Cyclodextrin was added at varying concentrations (% w/v) and incubated for 0.5 h prior to the addition of the virus. Polybrene added at a final concentration of 5 ug/mL to promote viral uptake. Cells were then infected with pLV[Exp]-Puro-CMV>EGFP lentivirus and incubated at 37° C., 5% CO2 for 0.5, 2, or 24 h depending upon the experimental setup. After the incubation time, the beta cyclodextrin solution was removed and cells washed with 1×PBS twice prior to the addition of complete growth medium (DMEM). GFP lentivirus was imaged using the Cytation 5 (Biotek) and relative fluorescence quantified using the Synergy H1 microplate reader (Biotek).

[2] = Table 2, confluent A549, 2.5% cyclodextrin (+ HEC: 0.188% HEC), 2 hr, negative values = increase in fluorescence intensity
[3] = Table 2, confluent A549, 2.5% cyclodextrin (+ HEC: 0.188% HEC), 4 hr, negative values = increase in fluorescence intensity
[4] = Table 2, confluent A549, 5% cyclodextrin (+ HEC: 0.375% HEC), 2 hr, negative values = increase in fluorescence intensity
[5] = Table 2, confluent A549, 5% cyclodextrin (+ HEC: 0.375% HEC), 4 hr, negative values = increase in fluorescence intensity
[6] = Table 2, confluent A549, 10% cyclodextrin (+ HEC: 0.75% HEC), 2 hr, negative values = increase in fluorescence intensity
[7] = Table 2, confluent A549, 10% cyclodextrin (+ HEC: 0.75% HEC), 4 hr, negative values = increase in fluorescence intensity
[8] = 2.5% HPBCD (Combination: + 0.188% HEC), 2 hr
[9] = 2.5% HPBCD (Combination: + 0.188% HEC), 4 hr
[10] = 5% HPBCD (Combination: + 0.375% HEC), 2 hr
[11] = 5% HPBCD (Combination: + 0.375% HEC), 4 hr
[12] = 10% HPBCD (Combination: + 0.75% HEC), 2 hr
[13] = 10% HPBCD (Combination: + 0.75% HEC), 4 hr
[14] = confluent A549, incubation over 4 hours

Compound: crystalline methylated beta-cyclodextrin [CRYSMEB]
- A549 cell morphology / cell death (A549 cells): cellular death and cellular morphological changes
- chemical dye penetration (in words) (A549; A549, across all timepoints): reduced in a dose-dependent manner
- Percent Reduction Compared to No Barrier Treatment (Mean ± SD) (A549; [2]): 36.0 ± 2.3%
- Percent Reduction Compared to No Barrier Treatment (Mean ± SD) (A549; [3]): 35.3 ± 1.9%
- Percent Reduction Compared to No Barrier Treatment (Mean ± SD) (A549; [4]): 47.9 ± 0.8%
- Percent Reduction Compared to No Barrier Treatment (Mean ± SD) (A549; [5]): 52.3 ± 2.6%
- Percent Reduction Compared to No Barrier Treatment (Mean ± SD) (A549; [6]): 58.5 ± 1.4%
- Percent Reduction Compared to No Barrier Treatment (Mean ± SD) (A549; [7]): 67.6 ± 2.3%

Compound: CC(O)COC[C@H]1O[C@@H]2O[C@H]3[C@H](O)[C@@H](O)[C@@H](O[C@H]4[C@H](O)[C@@H](O)[C@@H](O[C@H]5[C@H](O)[C@@H](O)[C@@H](O[C@H]6[C@H](O)[C@@H](O)[C@@H](O[C@H]7[C@H](O)[C@@H](O)[C@@H](O[C@H]8[C@H](O)[C@@H](O)[C@@H](O[C@H]1[C@H](O)[C@H]2O)O[C@@H]8COCC(C)O)O[C@@H]7COCC(C)O)O[C@@H]6COCC(C)O)O[C@@H]5COCC(C)O)O[C@@H]4COCC(C)O)O[C@@H]3COCC(C)O (stereo partly drawn) [HPBCD, (2-Hydroxypropyl)-Beta-Cyclodextrin]
- A549 cell morphology / cell death (A549 cells): No significant changes in cellular morphology or cell death
- Percent Reduction Compared to No Barrier Treatment (Mean ± SD) (HEK293T; [8]): 70.4 ± 1.7%
- Percent Reduction Compared to No Barrier Treatment (Mean ± SD) (HEK293T; [9]): 71.7 ± 0.8%
- Percent Reduction Compared to No Barrier Treatment (Mean ± SD) (HEK293T; [10]): 77.5 ± 0.6%
- Percent Reduction Compared to No Barrier Treatment (Mean ± SD) (HEK293T; [11]): 80.4 ± 0.8%
- Percent Reduction Compared to No Barrier Treatment (Mean ± SD) (HEK293T; [12]): 79.8 ± 0.6%
- Percent Reduction Compared to No Barrier Treatment (Mean ± SD) (HEK293T; [13]): 84.3 ± 0.6%
- chemical dye (Alamar blue) penetration, relative fluorescence intensity vs no treatment (HEK293T; FIG. 5, P<0.01): statistically significant reduction
- Percent Reduction Compared to No Barrier Treatment (Mean ± SD) (Vero-E6 ACE2; [8]): 62.8 ± 2.0%
- Percent Reduction Compared to No Barrier Treatment (Mean ± SD) (Vero-E6 ACE2; [9]): 67.1 ± 1.8%
- Percent Reduction Compared to No Barrier Treatment (Mean ± SD) (Vero-E6 ACE2; [10]): 70.2 ± 1.2%
- Percent Reduction Compared to No Barrier Treatment (Mean ± SD) (Vero-E6 ACE2; [11]): 76.9 ± 0.6%
- Percent Reduction Compared to No Barrier Treatment (Mean ± SD) (Vero-E6 ACE2; [12]): 73.5 ± 1.2%
- Percent Reduction Compared to No Barrier Treatment (Mean ± SD) (Vero-E6 ACE2; [13]): 82.5 ± 0.9%
- Percent Reduction Compared to No Barrier Treatment (Mean ± SD) (A549; A549, 2.5% HPBCD (Combination: + 0.188% HEC), 2 hr): 82.5 ± 1.4%
- Percent Reduction Compared to No Barrier Treatment (Mean ± SD) (A549; A549, 2.5% HPBCD (Combination: + 0.188% HEC), 4 hr): 66.9 ± 1.9%
- Percent Reduction Compared to No Barrier Treatment (Mean ± SD) (A549; A549, 5% HPBCD (Combination: + 0.375% HEC), 2 hr): 88.5 ± 0.7%
- Percent Reduction Compared to No Barrier Treatment (Mean ± SD) (A549; A549, 5% HPBCD (Combination: + 0.375% HEC), 4 hr): 81.5 ± 0.7%
- Percent Reduction Compared to No Barrier Treatment (Mean ± SD) (A549; A549, 10% HPBCD (Combination: + 0.75% HEC), 2 hr): 89.3 ± 0.6%
- Percent Reduction Compared to No Barrier Treatment (Mean ± SD) (A549; A549, 10% HPBCD (Combination: + 0.75% HEC), 4 hr): 82.9 ± 0.9%
- viral infectivity (GFP expressing lentiviruses) ([1]; 5-20% HPBCD alone): able to reduce viral infectivity
- signs of lentivirus infection ([1]; 20% HPBCD alone as a barrier): No signs of lentivirus infection
- infectivity in HEK cells ([1]; 0.5 h and 2 h incubation, p<0.05 and p<0.01 respectively): concentration dependent decrease in infectivity
- reduction of viral infectivity as measured by fluorescence signal ([1]; HEK293T, 5% HPBCD, 30 minutes of incubation with the virus): 50%
- lentivirus infectivity ([1]; HEK293T, MOI of 5, 6 hours, 10% and 20% HPBCD, p≤0.01): reduced lentivirus infectivity

Compound: sulfobutyl ether-beta-cyclodextrin [SBEBCD]
- Percent Reduction Compared to No Barrier Treatment (Mean ± SD) (A549; [2]): 10.7 ± 2.57%
- Percent Reduction Compared to No Barrier Treatment (Mean ± SD) (A549; [3]): −244.5 ± 3.0%
- Percent Reduction Compared to No Barrier Treatment (Mean ± SD) (A549; [4]): 39.5 ± 1.2%
- Percent Reduction Compared to No Barrier Treatment (Mean ± SD) (A549; [5]): −218.2 ± 13.2%
- Percent Reduction Compared to No Barrier Treatment (Mean ± SD) (A549; [6]): 51.3 ± 2.4%
- Percent Reduction Compared to No Barrier Treatment (Mean ± SD) (A549; [7]): −108.2 ± 19.5%
- chemical dye penetration (in words) (A549; confluent A549, 2 h timepoint): dose-dependent reduction in chemical dye penetration
- chemical dye penetration (in words) (A549; [14]): enhanced chemical dye penetration

Compound: 2-Hydroxypropyl-Gamma-cyclodextrin [HPGCD]
- Percent Reduction Compared to No Barrier Treatment (Mean ± SD) (A549; [2]): −89.9 ± 3.8%
- Percent Reduction Compared to No Barrier Treatment (Mean ± SD) (A549; [3]): −244.5 ± 3.0%
- Percent Reduction Compared to No Barrier Treatment (Mean ± SD) (A549; [4]): −46.7 ± 2.4%
- Percent Reduction Compared to No Barrier Treatment (Mean ± SD) (A549; [5]): −210.66 ± 3.0%
- Percent Reduction Compared to No Barrier Treatment (Mean ± SD) (A549; [6]): −13.1 ± 1.4%
- Percent Reduction Compared to No Barrier Treatment (Mean ± SD) (A549; [7]): −97.0 ± 2.1%
- chemical dye penetration (in words) (A549; [14]): enhanced chemical dye penetration
